# Results: patent US5364931A (Bayer Aktiengesellschaft, priority 1990, dated 1994)
# How the values were obtained:
# HIV protease = biological target: T1, HIV protease (Human immunodeficiency virus type 1 group M subtype B, UniProt P04585); assay: HIV-specific protease enzyme test (RP-HPLC), compounds of formula (I); format: biochemical; conditions: purified HIV protease, synthetic Gag cleavage-site peptide, compounds of general formula (I)
# T1 construct: purified HIV protease was incubated with synthetic peptide
# Method: (§1) The results for the examples listed below were determined by the HIV test system described in the following literature reports [cf. Hansen, J., Billich, S., Schulze, T. Sukrow, S. and Molling, K. (1988), EMBO Journal, Vol. 7, No. 6, pages 1785-1791]: purified HIV protease was incubated with synthetic peptide which imitates a cleavage site in the Gag precursor protein and represents an in vivo cleavage site of the HIV protease. The resulting cleavage products of the synthetic peptide were analysed by means of reverse phase high performance liquid chromatography (RP-HPLC). The IC50 values given relate to the substance concentration which causes a 50% inhibition of protease activity under the abovementioned test conditions.
# HIV-I protease = HIV-I protease (Human immunodeficiency virus type 1 group M subtype B, UniProt P04585); conditions: read-out: IC50 (inactivation of HIV-I protease); cited from earlier work
# HIV-2 protease = biological target: T2, HIV-2 protease (Human immunodeficiency virus type 2 subtype A, UniProt P04584); assay: HIV-specific protease enzyme test (RP-HPLC), HIV-2; format: biochemical; conditions: compounds of general formula (VIa)
# T2 construct: purified HIV protease was incubated with synthetic peptide
# Method: as §1
# HIV-1 protease = biological target: T3, HIV-1 protease (Human immunodeficiency virus type 1 group M subtype B, UniProt P04585); assay: HIV-specific protease enzyme test (RP-HPLC), HIV-1; format: biochemical
# T3 construct: purified HIV protease was incubated with synthetic peptide
# Method: as §1
# T2 sequence (P04584 514-612 limits assumed): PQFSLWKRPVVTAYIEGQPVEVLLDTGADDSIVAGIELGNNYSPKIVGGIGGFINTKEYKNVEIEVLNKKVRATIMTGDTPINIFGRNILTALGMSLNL
Molecule,IC50 (HIV protease) [µM],further results
"Diethyl 1-{(3S, 4S)-4-[(2S)-3-(tert-butylsulphonyl)-2-(1-naphthylmethyl)propanoyl]valinylamino]-5-cyclohexyl-3-hydroxy-pentanoyl}-(2R or 2S)-2-(pyrrolidinyl)phosphonate [26 (polar)]",0.1,–
"O=[N+]([O-])c1ccc(OCC2CO2)cc1 (stereo not drawn) [EPNP, 1,2-epoxy-3-(4-nitrophenoxy)propane]",–,IC50 (HIV-I protease): 450 µM
"CCOP(=O)(OCC)C1CCCN1C[C@H](O)[C@H](CC1CCCCC1)NC(=O)OC(C)(C)C (mixture of isomers) [5 (polar), Diethyl 1-{(2S, 3S)-3-[(tert-butoxycarbonyl)-amino]-4-cyclohexyl-2-hydroxy-butyl}-(2R and 2S)-2 (pyrrolidinyl)-phosphonate]",0.1,–
CC(C)[C@H](NC(=O)[C@H](Cc1ccccc1)NC(=O)CC(C)(C)C)C(=O)N[C@@H](Cc1ccccc1)C1CO1 (stereo partly drawn) [Example 46],–,IC50 (HIV-2 protease): 0.01 µM; IC50 (HIV-1 protease): 0.005 µM
"CCOP(=O)(OCC)C1CCCN1C[C@H](O)[C@H](CC1CCCCC1)NC(=O)OC(C)(C)C (mixture of isomers) [5 (non-polar), Diethyl 1-{(2S, 3S)-3-[(tert-butoxycarbonyl)-amino]-4-cyclohexyl-2-hydroxy-butyl}-(2R and 2S)-2 (pyrrolidinyl)-phosphonate]",1,–
